Source: ChEMBL document CHEMBL1129411, “Synthesis and dopamine transporter affinity of 2-(methoxycarbonyl)-9-methyl-3-phenyl-9-azabicyclo[3.3.1]nonane derivatives” (J Med Chem, 1996)

The molecules below were run against Sodium-dependent dopamine transporter (Rattus norvegicus, UniProt P23977) (assay: Binding affinity against dopamine transporter in rat caudate putamen tissue using [3H]WIN-35428 radioligand.).
Type: tissue-based

Chain of Sodium-dependent dopamine transporter (P23977 whole entry): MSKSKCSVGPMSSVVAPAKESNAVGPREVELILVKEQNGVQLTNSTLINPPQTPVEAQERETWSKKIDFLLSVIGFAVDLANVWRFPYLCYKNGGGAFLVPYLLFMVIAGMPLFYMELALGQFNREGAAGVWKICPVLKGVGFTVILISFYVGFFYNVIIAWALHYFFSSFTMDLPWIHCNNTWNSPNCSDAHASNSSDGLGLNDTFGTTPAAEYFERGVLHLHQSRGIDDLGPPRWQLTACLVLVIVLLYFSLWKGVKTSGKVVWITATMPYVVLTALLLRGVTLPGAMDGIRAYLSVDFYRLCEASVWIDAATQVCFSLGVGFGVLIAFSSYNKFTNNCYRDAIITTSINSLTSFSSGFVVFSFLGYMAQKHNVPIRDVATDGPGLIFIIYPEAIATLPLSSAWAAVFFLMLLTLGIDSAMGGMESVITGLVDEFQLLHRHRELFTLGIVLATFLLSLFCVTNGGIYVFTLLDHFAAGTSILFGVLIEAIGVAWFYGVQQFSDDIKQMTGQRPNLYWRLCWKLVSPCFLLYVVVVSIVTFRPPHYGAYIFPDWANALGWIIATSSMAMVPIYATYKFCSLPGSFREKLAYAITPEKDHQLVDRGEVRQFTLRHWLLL

Row | Structure (SMILES) | Ki
1 | COC(=O)[C@@H]1C2CC[C@H](C[C@@H]1c1ccccc1)N2C | 310 nM
2 | CN1C2CCCC1C(C(=O)c1ccccc1)C(c1ccccc1)C2 (stereo in doubt; 13) | 3970 nM
3 | CN1C2CCCC1C(C(=O)c1ccccc1)C(c1ccccc1)C2 (stereo in doubt; 14) | 1910 nM
4 | CO/C(O)=C1/C(=O)CCC2CCCC1N2C (centres undefined) | > 100000 nM
